# In PMC8066102, “Metabolic Profiles of New Unsymmetrical Bisacridine Antitumor Agents in Electrochemical and Enzymatic Noncellular Systems and in Tumor Cells” (Pharmaceuticals, 2021):
# Tests used:
# [1] = tested on: HCT-116 cells; test: Drug metabolism in HCT-116 colon tumor cells; format: cell-based, human; settings: HCT-116 (low UGT expression), 50 μM, medium and cell extract, up to 24 h
# Description: To analyze the transformation products of UAs in colon tumor cell lines, HCT-116 or HT-29 cells were plated in 60 mm Petri dishes; after reaching 80% of confluence, cells were treated with 5/25/50 μM of C-2028, C-2045 or C-2053 (prepared as 10 or 2 mM stock solutions in water) for specified time. Half of medium was added to acetonitrile (1:1, v/v), centrifuged (12 min, 13,400 rpm, 4 °C) and the supernatant was analyzed by HPLC (post-culture medium). Cells remaining on the Petri dishes were collected by gentle scraping, sedimented, washed with ice-cold PBS, suspended in ice-cold chloroform and lysed by sonication for 15 min. After 1 h on ice, insoluble material was removed by centrifugation at 13,000 rpm for 20 min at 4 °C. The sediment was discarded and supernatant (chloroform) were evaporated under pressure. Then, sample was suspended in ice-cold 60% methanol and directly analyzed by HPLC (cell extract).
# [2] = Differential pulse voltammetry on glassy carbon electrode; format: physicochemical; settings: 0.5–20 µM, 0.02 M borate buffer with 0.15 M NaCl, pH 7.4, glassy carbon electrode, vs Ag/AgCl/3 M KCl
# Description: To minimize the effects of electrode absorption processes on the current signals, differential pulse voltammetry (DPV) was applied in the positive potential range. […] This behavior was not observed in the case of C-2045, where only one anodic signal at a potential of approximately 0.52 V was observed over the entire studied concentration range (0.5–20 µM). The linear dependency, I = f (cUAs), confirmed that the obtained anodic current signals can be used for analytical purposes; however, the signal of C-2028 was linear over a narrower concentration range than in the case of C-2045.
# Cyclic voltammetry (CV) and differential pulse voltammetry (DVP) were performed in 0.02 M borate buffer with 0.15 M NaCl, in water pH 7.4. with Autolab, model PGSTAT 12 potentiostat equipped with an ECD amplifier module (RC time settings: 0.0 s for scan rates > 10 mV/s and 0.1 s for scan rates < 10 mV/s). The voltammetric measurements were done in the three-electrode system consisting of the working electrode (glassy carbon electrode, GCE; ϕ = 3 mm; BAS Instruments), the reference electrode (Ag/AgCl/3 M KCl) and a platinum wire as the auxiliary electrode. Before each experiment the surface of working electrode was polished with 1 μm Al2O3 powder on a wet pad. After each polishing, to remove alumina completely from the electrode surface, the surface was rinsed with direct stream of ultrapure water. […]
# [3] = target: T1, UGT2B15 (Homo sapiens, UniProt P54855); test: Modulation of UGT2B15 activity (TFK glucuronidation); format: in vitro ADME; settings: UGT2B15 isoenzyme preparation, pH 7.4, probe TFK, TFK substrate
# T1 construct: purchased Corning, NY, USA (through DIAG-MED, Poland); host or cells: baculovirus-insect cells (Supersomes)
# T1 sequence (P54855 24-530): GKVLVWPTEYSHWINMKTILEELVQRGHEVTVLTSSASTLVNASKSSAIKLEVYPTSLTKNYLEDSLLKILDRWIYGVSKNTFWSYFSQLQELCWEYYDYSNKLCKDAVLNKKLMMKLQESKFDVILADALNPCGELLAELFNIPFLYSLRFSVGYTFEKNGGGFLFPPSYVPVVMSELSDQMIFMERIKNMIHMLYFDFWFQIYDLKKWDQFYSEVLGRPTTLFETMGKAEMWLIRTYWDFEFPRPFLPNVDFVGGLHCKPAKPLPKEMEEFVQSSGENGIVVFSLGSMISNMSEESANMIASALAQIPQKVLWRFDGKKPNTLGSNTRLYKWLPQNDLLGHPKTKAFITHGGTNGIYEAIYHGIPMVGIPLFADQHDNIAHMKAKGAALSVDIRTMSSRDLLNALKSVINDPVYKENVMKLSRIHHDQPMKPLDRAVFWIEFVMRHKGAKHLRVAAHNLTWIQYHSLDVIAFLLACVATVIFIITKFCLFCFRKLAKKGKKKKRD
# Description: Isoenzyme activity was studied by the rate measurement of β-hydroxylation of testosterone (specific substrate for P4503A4) and of glucuronidation of specific substrates, namely, SN-38 (UGT1A1), EPI (UGT2B7),) and TFK (UGT2B15). All substrate and drug solutions were prepared as 10 mM stock solutions in DMSO and were diluted in […] (pH 7.4). The mixture containing isoenzymes P4503A4/UGT (0.5 mg/mL), probe substrate (0.1 mM), cofactor 2 mM NADPH/5 mM UDPGA and the increasing concentrations of tested UA (0, 0.01, 0.02 and 0.05 mM) was incubated in the reaction buffer containing (i) for P4503A4 0.1 M HEPES, 88 mM MgCl2 and (ii) for UGT 0.1 M HEPES, 88 mM MgCl2, 25 μg/mL alamethicin at 37 °C for 30 min and were terminated by adding 8.75 µL of 0.1 M HCl. The samples were placed in ice for 10 min and centrifuged (10 min, 13,400 rpm). Supernatant fractions were analyzed by HPLC. For more accurate investigation of P4503A4 inhibition by C-2045 and C-2053 the β-hydroxylation rate was measured at various concentrations of testosterone: 0.02, 0.05, 0.1 and 0.2 mM. The inhibitor (UA) concentrations were 0, 0.001, 0.005 and 0.01 mM, whereas the incubation time 30 min and concentration of P4503A4 (0.5 mg/mL).
metabolite formation in cells [1],DPV anodic signal potential [2],"inhibition at 30 min, 0.05 mM ([3]; highest concentration)",inhibition at 30 min ([3]; lowest concentrations),SMILES
No metabolite products were observed,approximately 0.52 V,,,Cc1ccc([N+](=O)[O-])c2c(NCCCN(C)CCCNc3ccc4ncn5c6ccc(O)cc6c(=O)c3c45)c3ccccc3nc12 [C-2045]
,,80%,~30%,CN(CCCNc1c2ccccc2nc2cccc([N+](=O)[O-])c12)CCCNc1ccc2ncn3c4ccccc4c(=O)c1c23 [C-2028]
